Test results taken from patent US11149049B2, “Substituted nucleosides, nucleotides and analogs thereof” (JANSSEN BIOPHARMA, INC., priority 2017, dated 2021).
Like-named read-outs stand apart in the source and are kept apart here.

Columns and labels:
[1] = system: human β-coronavirus strain OC43; experiment: Coronavirus antiviral assay (OC43); assay type: cell-based; conditions: Betacoronavirus 1, OC43, 120 h; HeLa or MRC-5 cells, five days, CellTiter-Glo; read-out: OC43CoV EC50
Description: (§1) The human β-coronavirus strain OC43 was purchased from ATCC (Manassas, Va.; item numbers VR-1558 and VR-740, respectively). 24 hours prior to dosing, HeLa human cervix epithelial cells (ATCC, CCL-2) or MRC-5 human lung fibroblast (ATCC, CCL-171) were plated in 96 well plates at a density of 1.5×10^5/ml in DMEM medium supplemented with 10% fetal bovine serum, 1% HEPES buffer, 1% Penicillin/Streptomycin and 1% non-essential amino acids (all Mediatech, Manassas, Va.). At the day of infection, serially diluted compounds were added to cells and incubated for 4 hours. After the end of the 4 hour pre-incubation period, cells were infected with either coronavirus strain OC43 or 229E. The virus inoculum was selected to cause 80-90% cytopathic effect. Infected cells were incubated for five days at 37° C., 5% CO2. To develop the assay, 100 μl media was replaced with 100 μl CellTiter-Glo® reagent (Promega, Madison, Wis.), and incubated for 10 min at room temperature. Luminescence was measured on a Victor X3 multi-label plate reader. Potential compound cytotoxicity was determined using uninfected parallel cultures.

[2] = Cytotoxicity in the coronavirus assay, uninfected parallel cultures; assay type: cell-based; conditions: human, read-out: OC43CoV CC50
Description: as §1

[3] = system: Dengue virus type 2 NG-C or Dengue virus type 4 H241; experiment: Dengue antiviral assay (DENV); assay type: cell-based; conditions: Huh-7.5 cells, five to six days, CellTiter-Glo
Description: The Dengue virus type 2 strain New Guniea C (NG-C) and the Dengue virus type 4 strain H241 were purchased from ATCC (Manassas, Va.; item numbers VR-1584 and VR-1490, respectively). 24 hours prior to dosing, Huh-7.5 cells were plated in 96 well plates at a density of 1.5×10^5/ml in DMEM medium supplemented with 10% fetal bovine serum, 1% HEPES buffer, 1% Penicillin/Streptomycin and 1% non-essential amino acids (all Mediatech, Manassas, Va.). At the day of infection, serially diluted compounds were added to cells and incubated for 4 hours. After the end of the 4 hour pre-incubation period, cells were infected with either Dengue virus type 2 NG-C or Dengue virus type 4 H241. The virus inoculum was selected to cause 80-90% cytopathic effect in five to six days. Infected cells were incubated for five (NG-C) to six (H241) days at 37° C., 5% CO2. To develop the assay, 100 μl media was replaced with 100 μl CellTiter-Glo® reagent (Promega, Madison, Wis.), and incubated for 10 min at room temperature. Luminescence was measured on a Victor X3 multi-label plate reader. Potential compound cytotoxicity was determined using uninfected parallel cultures.

[4] = system: RSV replicon; experiment: microbe, parasite or virus in culture; assay type: cell-based
[5] = Cell viability (CC50) in the RSV replicon assay; conditions: human, HeLa-derived cells containing the stable RSV replicon, CellTiter-Glo
[6] = Cytotoxicity in the DENV assay, uninfected parallel cultures; conditions: human, DENV CC50, uninfected Huh-7.5 parallel cultures
[7] = system: Ebola minigenome; experiment: microbe, parasite or virus in culture; assay type: cell-based
[8] = system: Human rhinovirus 1B; experiment: Rhinovirus antiviral assay (HRV1B); assay type: cell-based; conditions: Rhinovirus A, 96 h, read-out: HRV 1B EC50, HeLa-OHIO cells, 4 d, CellTiter-Glo
[9] = in vitro; conditions: human
[10] = Toxicity (CC50) in the HRV1B assay; conditions: human
[11] = system: Huh-7.5 cells; experiment: Cytotoxicity in the DENV assay, uninfected parallel cultures; conditions: read-out: DENV CC50; uninfected Huh-7.5 parallel cultures
[12] = target: human rhinovirus 16 RNA polymerase (Human rhinovirus 16 (HRV-16), UniProt Q82122); assay type: biochemical; conditions: recombinant enzyme, tritiated NMP incorporation, 2.5 hours at 30° C.; read-out: HRV16pol IC50
human rhinovirus 16 RNA polymerase, sequence (Q82122 1694-2153 limits assumed): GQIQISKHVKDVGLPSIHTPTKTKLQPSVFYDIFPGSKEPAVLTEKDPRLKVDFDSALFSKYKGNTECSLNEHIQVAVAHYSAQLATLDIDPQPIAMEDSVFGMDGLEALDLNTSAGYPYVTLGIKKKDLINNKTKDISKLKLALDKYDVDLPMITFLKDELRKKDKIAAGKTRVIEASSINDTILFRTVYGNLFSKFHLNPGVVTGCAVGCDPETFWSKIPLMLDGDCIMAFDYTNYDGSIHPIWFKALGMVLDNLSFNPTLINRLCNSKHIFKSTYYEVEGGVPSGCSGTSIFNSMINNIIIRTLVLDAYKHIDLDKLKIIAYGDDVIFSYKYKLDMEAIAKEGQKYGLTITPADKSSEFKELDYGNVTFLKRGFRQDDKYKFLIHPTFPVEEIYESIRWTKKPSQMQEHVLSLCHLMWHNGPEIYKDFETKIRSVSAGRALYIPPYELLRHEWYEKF

[13] = target: hepatitis C virus RNA polymerase (Hepatitis C virus genotype 1a (isolate H77) (HCV), UniProt P27958); experiment: HCV polymerase assay (HCVpol); assay type: biochemical; conditions: recombinant enzyme, tritiated NMP incorporation, 2.5 hours at 30° C.
hepatitis C virus RNA polymerase, sequence (P27958 2421-3011 limits assumed): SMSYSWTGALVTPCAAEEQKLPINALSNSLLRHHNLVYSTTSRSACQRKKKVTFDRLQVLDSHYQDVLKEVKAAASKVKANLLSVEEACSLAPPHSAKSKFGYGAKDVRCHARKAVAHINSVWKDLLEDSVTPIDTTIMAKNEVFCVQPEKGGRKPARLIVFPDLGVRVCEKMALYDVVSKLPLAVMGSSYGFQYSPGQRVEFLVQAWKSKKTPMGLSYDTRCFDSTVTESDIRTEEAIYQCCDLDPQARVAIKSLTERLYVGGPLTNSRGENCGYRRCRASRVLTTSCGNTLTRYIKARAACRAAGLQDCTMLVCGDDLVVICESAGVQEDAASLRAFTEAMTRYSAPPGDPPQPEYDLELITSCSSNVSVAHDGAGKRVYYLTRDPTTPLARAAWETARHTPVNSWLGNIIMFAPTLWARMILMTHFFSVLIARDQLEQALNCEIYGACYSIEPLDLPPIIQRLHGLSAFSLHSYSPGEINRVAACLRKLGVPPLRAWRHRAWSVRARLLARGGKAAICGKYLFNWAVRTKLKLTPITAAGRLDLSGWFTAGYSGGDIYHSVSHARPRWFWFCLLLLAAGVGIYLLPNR
Description: The enzyme activity of hepatitis C virus RNA polymerase (HCVpol) and human rhinovirus 16 RNA polymerase (HRV16pol) is measured as an incorporation of tritiated NMP into acid-insoluble RNA products. HCVpol and HRV16pol assay reactions contain 30-100 nM recombinant enzyme, 50-500 nM heteropolymeric RNA, 0.5 μCi tritiated NTP, 0.1-1 μM of other NTPs, in a standard reaction buffer containing MgCl2. Enzymatic reactions are incubated for 2.5 hours at 30° C., in the presence of increasing concentration of inhibitor. At the end of the reaction, the total RNA is precipitated with 10% TCA, and acid-insoluble RNA products are filtered on a size exclusion 96-well plate. After washing of the plate, scintillation liquid is added and radiolabeled RNA products are detected according to standard procedures with a Trilux Microbeta scintillation counter. The compound concentration at which the enzyme-catalyzed rate is reduced by 50% (IC50) is calculated by fitting the data to a non-linear regression (sigmoidal).

[14] = target: dengue virus NS5 polymerase domain (Dengue virus type 2, UniProt P14340); experiment: Dengue polymerase assay (DENVpol); conditions: 100 nM recombinant enzyme, 3 hours at 30° C., mean of several independent experiments
Description: The enzyme activity of dengue virus NS5 polymerase domain (DENVpol, serotype 2, New Guinea C strain) was measured as an incorporation of tritiated NMP into acid-insoluble RNA products. DENVpol assay reactions contained 100 nM recombinant enzyme, 50 nM heteropolymeric RNA, about 0.5 μCi tritiated NTP, 0.33 μM of competing cold NTP, 40 mM HEPES (pH 7.5), 3 mM dithiothreitol, and 2 mM MgCl2. Standard reactions were incubated for 3 hours at 30° C., in the presence of increasing concentration of inhibitor. At the end of the reaction, RNA was precipitated with 10% TCA, and acid-insoluble RNA products were filtered on a size exclusion 96-well plate. After washing of the plate, scintillation liquid was added and radiolabeled RNA products were detected according to standard procedures with a Trilux Topcount scintillation counter. The compound concentration at which the enzyme-catalyzed rate was reduced by 50% (IC50) was calculated by fitting the data to a non-linear regression (sigmoidal).

[15] = human respiratory syncytial virus, 168 h, read-out: RSV EC50, HeLa-derived RSV replicon cells, 7 days, luciferase
[16] = Zaire ebolavirus, HEp-2, 48 h, read-out: EBOV EC50, HEp-2 cells, Ebola minigenome, 48 hours

Row | SMILES | EC50 [1] [nM] | CC50 at 5 days [2] [nM] | EC50 ([3]; Dengue virus, Huh7.5, 144 h) [nM] | EC50 [4, 15] [nM] | CC50 at 7 days [5] [nM] | CC50 [6] [nM] | EC50 [7, 16] [nM] | EC50 [8] [nM] | EC50 [3] [nM] | CC50 [9] [nM] | CC50 at 4 d [10] [nM] | CC50 [11] [nM] | EC50 ([7]; read-out: EBOV EC50, HEp-2 cells, Ebola minigenome, 48 hours) [nM] | EC50 ([4]; read-out: RSV EC50, HeLa-derived RSV replicon cells, 7 days, luciferase) [nM] | IC50 [12] [nM] | IC50 [13] [nM] | IC50 [14] [nM]
1 | CC(C)OC(=O)[C@@H](C)NP(=O)(OC[C@@]1(F)O[C@@](C#N)(c2ccc3c(N)ncnn23)[C@H](O)[C@@H]1O)Oc1ccccc1 (stereo partly drawn) [Compound 5, Isopropyl ((((2S,3S,4R,5R)-5-(4-aminopyrrolo[2,1-f][1,2,4]triazin-7-yl)-5-cyano-2-fluoro-3,4-dihydroxytetrahydrofuran-2-yl)methoxy)(phenoxy)phosphoryl)-D-alaninate] | 25300 | > 100000 | 7370 | 2740 | > 100000 | > 100000 | – | – | – | – | – | – | – | – | – | – | –
2 | CC(C)OC(=O)[C@H](C)NP(=O)(OC[C@@]1(F)O[C@@](C#N)(c2ccc3c(N)ncnn23)[C@H](O)[C@@H]1O)Oc1ccccc1 (stereo partly drawn) [Compound 6, Isopropyl ((((2S,3S,4R,5R)-5-(4-aminopyrrolo[2,1-f][1,2,4]triazin-7-yl)-5-cyano-2-fluoro-3,4-dihydroxytetrahydrofuran-2-yl)methoxy)(phenoxy)phosphoryl)-L-alaninate] | 1700 | > 100000 | 250 | 20 | 43000 | 78000 | 2500 | 4100 | 330 | > 100000 | > 100000 | 69000 | – | – | – | – | –
3 | C[C@H](NP(=O)(OC[C@@]1(F)O[C@@](C#N)(c2ccc3c(N)ncnn23)[C@H](O)[C@@H]1O)Oc1ccccc1)C(=O)OCC(C)(C)C (stereo partly drawn) [Compound 8, Neopentyl ((((2S,3S,4R,5R)-5-(4-aminopyrrolo[2,1-f][1,2,4]triazin-7-yl)-5-cyano-2-fluoro-3,4-dihydroxytetrahydrofuran-2-yl)methoxy)(phenoxy)phosphoryl)-L-alaninate] | 100 | > 50000 | 110 | 30 | – | – | 500 | – | 140 | > 100000 | 64000 | – | 800 | 26 | – | – | –
4 | CCC(CC)COC(=O)[C@@H](C)NP(=O)(OC[C@@]1(F)O[C@@](C#N)(c2ccc3c(N)ncnn23)[C@H](O)[C@@H]1O)Oc1ccccc1 (stereo partly drawn) [Compound 9, 2-Ethylbutyl ((((2S,3S,4R,5R)-5-(4-aminopyrrolo[2,1-f][1,2,4]triazin-7-yl)-5-cyano-2-fluoro-3,4-dihydroxytetrahydrofuran-2-yl)methoxy)(phenoxy)phosphoryl)-D-alaninate] | 25 | 34000 | 70 | 18 | 8100 | 12000 | 250 | 130 | – | ~50000 | 33000 | – | – | – | – | – | –
5 | CCCOC(=O)[C@H](C)NP(=O)(N[C@@H](C)C(=O)OCCC)OC[C@@]1(F)O[C@@](C#N)(c2ccc3c(N)ncnn23)[C@H](O)[C@@H]1O [Compound 10] | 2300 | > 50000 | – | 170 | > 100000 | – | – | 3100 | – | – | > 100000 | – | – | – | – | – | –
6 | CC(C)OC(=O)[C@@H](C)NP(=O)(OC[C@@]1(N=[N+]=[N-])O[C@@](C#N)(c2ccc3c(N)ncnn23)[C@H](O)[C@@H]1O)Oc1ccccc1 (stereo partly drawn) [Compound 11, Isopropyl ((((2R,3S,4R,5R)-5-(4-aminopyrrolo[2,1-f][1,2,4]triazin-7-yl)-2-azido-5-cyano-3,4-dihydroxytetrahydrofuran-2-yl)methoxy)(phenoxy)phosphoryl)-D-alaninate] | > 50000 | > 50000 | – | 1300 | 13600 | – | – | > 100000 | – | – | 59000 | – | – | – | – | – | –
7 | N#C[C@@]1(c2ccc3c(N)ncnn23)O[C@](F)(COP(=O)(O)OP(=O)(O)OP(=O)(O)O)[C@@H](O)[C@H]1O [Compound 12, ((2S,3S,4R,5R)-5-(4-Aminopyrrolo[2,1-f][1,2,4]triazin-7-yl)-5-cyano-2-fluoro-3,4-dihydroxytetrahydrofuran-2-yl)methyl tetrahydrogen triphosphate] | – | – | – | – | – | – | – | – | – | – | – | – | – | – | 130 | 400 | 1100
8 | N#C[C@@]1(c2ccc3c(N)ncnn23)O[C@](CF)(COP(=O)(O)OP(=O)(O)OP(=O)(O)O)[C@@H](O)[C@H]1O [Compound 13, ((2R,3S,4R,5R)-5-(4-Aminopyrrolo[2,1-f][1,2,4]triazin-7-yl)-5-cyano-2-(fluoromethyl)-3,4-dihydroxytetrahydrofuran-2-yl)methyl tetrahydrogen triphosphate] | – | – | – | – | – | – | – | – | – | – | – | – | – | – | 210 | > 10000 | > 10000
9 | N#C[C@@]1(c2ccc3c(N)ncnn23)O[C@@](COP(=O)(O)OP(=O)(O)OP(=O)(O)O)(N=[N+]=[N-])[C@@H](O)[C@H]1O [Compound 14, ((2R,3S,4R,5R)-5-(4-Aminopyrrolo[2,1-f][1,2,4]triazin-7-yl)-2-azido-5-cyano-3,4-dihydroxytetrahydrofuran-2-yl)methyl tetrahydrogen triphosphate] | – | – | – | – | – | – | – | – | – | – | – | – | – | – | 40 | 300 | 1100
10 | N#C[C@@]1(c2ccc3c(N)ncnn23)O[C@H](COP(=O)(O)OP(=O)(O)OP(=O)(O)O)[C@@H](O)[C@H]1O [Compound C2, reference compound] | – | – | – | – | – | – | – | – | – | – | – | – | – | – | 270 | 1000 | 3600
